The numbers were not newly measured in PubChem BioAssay AID1259409 (Chemical Carcinogenesis Research Information System (CCRIS), 2018), which cites them from elsewhere.

This series relates to rodent chemically induced tumor inhibition, incidence and multiplicity. Briefly: CCRIS tumor inhibitor studies.

The structures appear in SMILES notation.

Turning to `COc1ccc(-c2coc3cc(O)cc(O)c3c2=O)cc1`, the “tumour outcome (control, treated, inhibition, significance)” value reads like this: (Carcinogen: BENZO[A]PYRENE, 50-32-8, Dose [Inhibitor]: 0, 0.125 MG IN 0.1 ML DMSO 3/WK FOR 6 WK AFTER WEANING (STUDY DURATION: 9 WK), Route [Inhibitor]: INTRAPERITONEAL, Species: MOUSE, Strain/Sex: SWISS WEBSTER/MALE, FEMALE, Target Tissue: Type of Lesion: LUNG: ADENOMA, Dose [Carcinogen]: 0.5 MG IN AQUEOUS GELATIN WITHIN 24 HRS AFTER BIRTH, Promoter: NONE USED) 20/35 (57%), 2/16 (13%), 77%, p<0.01; (Carcinogen: BENZO[A]PYRENE, 50-32-8, Dose [Inhibitor]: 0, 0.125 MG IN 0.1 ML DMSO 3/WK FOR 6 WK AFTER WEANING (STUDY DURATION: 9 WK), Route [Inhibitor]: INTRAPERITONEAL, Species: MOUSE, Strain/Sex: SWISS/FEMALE, Target Tissue: Type of Lesion: LUNG: ADENOMA, Dose [Carcinogen]: 0.5 MG IN 1% AQUEOUS GELATIN TO 24 HR OLD MICE ONCE, Promoter: NONE USED) 11/19 (58%), 2/16 (13%), 78%, p<0.01; (Carcinogen: BENZO[A]PYRENE, 50-32-8, Dose [Inhibitor]: 0, 500 MG/KG IN 0.1 ML DMSO 2 D PRIOR TO EACH CARCINOGEN DOSE 1/WK FOR 4 WK (STUDY DURATION: 30 WK), Route [Inhibitor]: GAVAGE, Species: MOUSE, Strain/Sex: SWISS/FEMALE, Target Tissue: Type of Lesion: FORESTOMACH: CARCINOMA, Dose [Carcinogen]: 3 MG IN 0.2 ML CORN OIL 1/WK FOR 4 WK, Promoter: NONE USED) 13/26 (50%), 4/24 (17%), 66%, p<0.02; (Carcinogen: BENZO[A]PYRENE, 50-32-8, Dose [Inhibitor]: 0, 500 MG/KG IN 0.1 ML DMSO 2 D PRIOR TO EACH CARCINOGEN DOSE 1/WK FOR 4 WK (STUDY DURATION: 30 WK), Route [Inhibitor]: GAVAGE, Species: MOUSE, Strain/Sex: SWISS/FEMALE, Target Tissue: Type of Lesion: FORESTOMACH: PAPILLOMA, Dose [Carcinogen]: 3 MG IN 0.2 ML CORN OIL 1/WK FOR 4 WK, Promoter: NONE USED) 25/26 (96%), 21/24 (88%), 8%, not calculated; (Carcinogen: BENZO[A]PYRENE, 50-32-8, Dose [Inhibitor]: 0, 500 MG/KG IN 0.1 ML DMSO 2 D PRIOR TO EACH CARCINOGEN DOSE 1/WK FOR 4 WK (STUDY DURATION: 30 WK), Route [Inhibitor]: GAVAGE, Species: MOUSE, Strain/Sex: SWISS/FEMALE, Target Tissue: Type of Lesion: LUNG: ADENOMA, Dose [Carcinogen]: 3 MG IN 0.2 ML CORN OIL 1/WK FOR 4/WK, Promoter: NONE USED) 24/26 (92%), 20/24 (83%), 10%, not calculated; (Carcinogen: N-METHYL-N-NITROSOUREA, 684-93-5, Dose [Inhibitor]: 0, 10 MG/KG IN DIET FOR DURATION OF STUDY BEGINNING POST CARCINOGEN DOSE (STUDY DURATION: 18 WK), Route [Inhibitor]: ORAL, Species: RAT, Strain/Sex: SPRAGUE-DAWLEY/FEMALE, Target Tissue: Type of Lesion: MAMMARY GLAND: TUMOR, Dose [Carcinogen]: 40 MG/KG BW ONCE, Promoter: NONE USED) 16/20 (80%), 11/19 (58%), 28%, not calculated. Besides, under “Carcinogen: N-METHYL-N-NITROSOUREA, 684-93-5, Dose [Inhibitor]: 0, 50 MG/KG IN DIET FOR DURATION OF STUDY BEGINNING POST CARCINOGEN DOSE (STUDY DURATION: 18 WK), Route [Inhibitor]: ORAL, Species: RAT, Strain/Sex: SPRAGUE-DAWLEY/FEMALE, Target Tissue: Type of Lesion: MAMMARY GLAND: TUMOR, Dose [Carcinogen]: 40 MG/KG BW ONCE, Promoter: NONE USED”, the “tumour outcome (control, treated, inhibition, significance)” value was 16/20 (80%), 6/19 (32%), 60%, p<0.01.
In the case of `NCc1cc(=O)[nH]o1`, the “tumour outcome (control, treated, inhibition, significance)” value was 3/17 (18%), 8/19 (42%), -133%, not significant (Carcinogen: AZOXYMETHANE, 25843-45-2, Dose [Inhibitor]: 0, 0.5 MG/KG IN 2 ML/KG 0.9% SALINE 1/2 D CONCURRENTLY WITH CARCINOGEN AND CONTINUING FOR STUDY DURATION (STUDY DURATION, Route [Inhibitor]: INTRAPERITONEAL, Species: RAT, Strain/Sex: WISTAR/MALE, Target Tissue: Type of Lesion: COLON: ADENOMA, Dose [Carcinogen]: 7.4 MG/KG IN 0.9% SALINE 1/WK FOR 10 WK, Promoter: NONE USED); 13/19 (68%), 12/20 (60%), 12%, not significant (Carcinogen: N-METHYL-N'-NITRO-N-NITROSOGUANIDINE, 70-25-7, Dose [Inhibitor]: 0, 0.25 MG/KG IN NACL INJECTED 1/2 D FOR DURATION OF STUDY BEGINNING 1 WK POST CARCINOGEN DOSE (STUDY DURATION: 52 WK), Route [Inhibitor]: INTRAPERITONEAL, Species: RAT, Strain/Sex: WISTAR/MALE, Target Tissue: Type of Lesion: STOMACH: ADENOCARCINOMA, Dose [Carcinogen]: 50 UG/ML IN DRINKING WATER FOR 25 WK, Promoter: NONE USED); 10/20 (50%), 3/20 (15%), 70%, p<0.05 (Carcinogen: N-METHYL-N'-NITRO-N-NITROSOGUANIDINE, 70-25-7, Dose [Inhibitor]: 0, 0.5 MG/KG BW 1/2 D FOR DURATION OF STUDY BEGINNING 1 WK POST LAST CARCINOGEN DOSE (STUDY DURATION: 52 WK), Route [Inhibitor]: INTRAPERITONEAL, Species: RAT, Strain/Sex: SHR/MALE, Target Tissue: Type of Lesion: STOMACH: ADENOCARCINOMA, Dose [Carcinogen]: 25 UG/ML IN DRINKING WATER FOR 25 WK, Promoter: NONE USED); 1/14 (7%), 0/15 (0%), 100%, not significant (Carcinogen: N-METHYL-N'-NITRO-N-NITROSOGUANIDINE, 70-25-7, Dose [Inhibitor]: 0, 0.5 MG/KG BW 1/2 D FOR DURATION OF STUDY BEGINNING 1 WK POST LAST CARCINOGEN DOSE (STUDY DURATION: 52 WK), Route [Inhibitor]: INTRAPERITONEAL, Species: RAT, Strain/Sex: WISTAR/MALE, Target Tissue: Type of Lesion: STOMACH: ADENOCARCINOMA, Dose [Carcinogen]: 25 UG/ML IN DRINKING WATER FOR 25 WK, Promoter: NONE USED); 13/19 (68%), 12/18 (67%), 2%, not calculated (Carcinogen: N-METHYL-N'-NITRO-N-NITROSOGUANIDINE, 70-25-7, Dose [Inhibitor]: 0, 0.5 MG/KG IN NACL INJECTED 1/2 D FOR DURATION OF STUDY BEGINNING 1 WK POST CARCINOGEN DOSE (STUDY DURATION: 52 WK), Route [Inhibitor]: INTRAPERITONEAL, Species: RAT, Strain/Sex: WISTAR/MALE, Target Tissue: Type of Lesion: STOMACH: ADENOCARCINOMA, Dose [Carcinogen]: 50 UG/ML IN DRINKING WATER FOR 25 WK, Promoter: NONE USED).
As for `COc1cc2c(cc1OC)[C@]1(O)C(=O)c3ccc4c(c3O[C@@H]1CO2)C=CC(C)(C)O4`, under “Carcinogen: 7,12-DIMETHYLBENZ[A]ANTHRACENE, 57-97-6, Dose [Inhibitor]: 0, 85 NMOL 2/WK BEGINNING 1 WK POST CARCINOGEN DOSE (STUDY DURATION: 20 WK), Route [Inhibitor]: DERMAL, Species: MOUSE, Strain/Sex: ICR/FEMALE, Target Tissue: Type of Lesion: SKIN: PAPILLOMA, Dose [Carcinogen]: 390 NMOL, Promoter: 12-O-TETRADECANOYLPHORBOL-13-ACETATE, 16561-29-8”, the “tumour outcome (control, treated, inhibition, significance)” value is reported as 100%, 40%, 60%, not calculated.
In the case of `C/C=C(/C)C(=O)OC1c2c(ccc3ccc(=O)oc23)OC(C)(C)C1OC(=O)/C(C)=C\C` (centres undefined), under “Carcinogen: 7,12-DIMETHYLBENZ[A]ANTHRACENE, 57-97-6, Dose [Inhibitor]: 10 UMOL APPLIED 40 MINUTES PRIOR TO PROMOTER DOSE (STUDY DURATION: 20 WK), Route [Inhibitor]: DERMAL, Species: MOUSE, Strain/Sex: ICR/FEMALE, Target Tissue: Type of Lesion: SKIN: PAPILLOMA, Dose [Carcinogen]: 100 UG ONCE”, the “tumour outcome (control, treated, inhibition, significance)” value was 100%, 0%, 100%, not calculated.
